Values of other authors in patent US11304902B2, “Pharmaceutical compositions, preparation and uses thereof” (CURADIGM SAS, priority 2014, dated 2022).

Tested on: CYP1A
Settings: human CYP enzyme

role towards CYP1A (substrate / inhibitor / inducer): Inhibitor
Compound: COc1ccc(-c2cc(=O)c3c(O)cc(O)cc3o2)cc1 [Acacetin, acacetin]
